Data published in PubChem BioAssay (NCI).
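Assay format: 96-well plates, 48-hour exposure. Here, GI50 denotes the concentration required for 50% inhibition of growth. The concentration for full growth arrest is given as TGI.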

Columns and labels:
Assay in all cases: growth of human tumour cells (NCI), 48 h
786-0 renal = system: 786-0 renal
A498 renal = system: A498 renal
A549 NSCLC = system: A549 NSCLC
ACHN renal = system: ACHN renal
BT-549 breast = system: BT-549 breast
CAKI-1 renal = system: CAKI-1 renal
CCRF-CEM leukemia = system: CCRF-CEM leukemia
COLO 205 colon = system: COLO 205 colon
DU-145 prostate = system: DU-145 prostate
EKVX NSCLC = system: EKVX NSCLC
HCC-2998 colon = system: HCC-2998 colon
HCT-116 colon = system: HCT-116 colon
HCT-15 colon = system: HCT-15 colon
HL-60(TB) leukemia = system: HL-60(TB) leukemia
HOP-62 NSCLC = system: HOP-62 NSCLC
HOP-92 NSCLC = system: HOP-92 NSCLC
HS 578T breast = system: HS 578T breast
HT29 colon = system: HT29 colon
IGROV1 ovarian = system: IGROV1 ovarian
K-562 leukemia = system: K-562 leukemia
KM12 colon = system: KM12 colon
LOX IMVI melanoma = system: LOX IMVI melanoma
M14 melanoma = system: M14 melanoma
MALME-3M melanoma = system: MALME-3M melanoma
MCF7 breast = system: MCF7 breast
MDA-MB-231 breast = system: MDA-MB-231 breast
MDA-MB-435 = system: MDA-MB-435
MOLT-4 leukemia = system: MOLT-4 leukemia
NCI-H226 lung = system: NCI-H226 lung
NCI-H23 lung = system: NCI-H23 lung
NCI-H460 lung = system: NCI-H460 lung
NCI-H522 lung = system: NCI-H522 lung
NCI/ADR-RES ovarian = system: NCI/ADR-RES ovarian
OVCAR-3 ovarian = system: OVCAR-3 ovarian
OVCAR-4 ovarian = system: OVCAR-4 ovarian
OVCAR-5 ovarian = system: OVCAR-5 ovarian
OVCAR-8 ovarian = system: OVCAR-8 ovarian
PC-3 prostate = system: PC-3 prostate
RPMI-8226 leukemia = system: RPMI-8226 leukemia
RXF 393 renal = system: RXF 393 renal
SF-268 CNS = system: SF-268 CNS
SF-295 CNS = system: SF-295 CNS
SF-539 CNS = system: SF-539 CNS
SK-MEL-2 melanoma = system: SK-MEL-2 melanoma
SK-MEL-28 melanoma = system: SK-MEL-28 melanoma
SK-MEL-5 melanoma = system: SK-MEL-5 melanoma
SK-OV-3 ovarian = system: SK-OV-3 ovarian
SN12C renal = system: SN12C renal
SNB-19 CNS = system: SNB-19 CNS
SNB-75 CNS = system: SNB-75 CNS
SR leukemia = system: SR leukemia
SW-620 colon = system: SW-620 colon
T-47D breast = system: T-47D breast
TK-10 renal = system: TK-10 renal
U251 CNS = system: U251 CNS
UACC-257 melanoma = system: UACC-257 melanoma
UACC-62 melanoma = system: UACC-62 melanoma
UO-31 renal = system: UO-31 renal

O1[As]2O[As]3O[As]1O[As](O2)O3
GI50 (786-0 renal): 528 nM | TGI (786-0 renal): 1820 nM | GI50 (A498 renal): 87.5 nM | TGI (A498 renal): 352 nM | GI50 (A549 NSCLC): 3290 nM | TGI (A549 NSCLC): 14900 nM | GI50 (ACHN renal): 2540 nM | TGI (ACHN renal): 11200 nM | GI50 (BT-549 breast): 278 nM | TGI (BT-549 breast): 903 nM | GI50 (CAKI-1 renal): 567 nM | TGI (CAKI-1 renal): 3130 nM | GI50 (CCRF-CEM leukemia): 161 nM | TGI (CCRF-CEM leukemia): 1110 nM | GI50 (COLO 205 colon): 1670 nM | TGI (COLO 205 colon): 4500 nM | GI50 (DU-145 prostate): 2080 nM | TGI (DU-145 prostate): 7210 nM | GI50 (EKVX NSCLC): 1540 nM | TGI (EKVX NSCLC): 7120 nM | GI50 (HCC-2998 colon): 1650 nM | TGI (HCC-2998 colon): 3600 nM | GI50 (HCT-116 colon): 1270 nM | TGI (HCT-116 colon): 2800 nM | GI50 (HCT-15 colon): 1080 nM | TGI (HCT-15 colon): 4790 nM | GI50 (HL-60(TB) leukemia): 344 nM | TGI (HL-60(TB) leukemia): 1730 nM | GI50 (HOP-62 NSCLC): 1000 nM | TGI (HOP-62 NSCLC): 2550 nM | GI50 (HOP-92 NSCLC): 238 nM | TGI (HOP-92 NSCLC): 897 nM | GI50 (HS 578T breast): 981 nM | TGI (HS 578T breast): > 42500 nM | GI50 (HT29 colon): 876 nM | TGI (HT29 colon): 4670 nM | GI50 (IGROV1 ovarian): 457 nM | TGI (IGROV1 ovarian): 2700 nM | GI50 (K-562 leukemia): 317 nM | TGI (K-562 leukemia): 2990 nM | GI50 (KM12 colon): 3310 nM | TGI (KM12 colon): 13900 nM | GI50 (LOX IMVI melanoma): 657 nM | TGI (LOX IMVI melanoma): 2130 nM | GI50 (M14 melanoma): 1460 nM | TGI (M14 melanoma): 4210 nM | GI50 (MALME-3M melanoma): 477 nM | TGI (MALME-3M melanoma): 2080 nM | GI50 (MCF7 breast): 388 nM | TGI (MCF7 breast): 2290 nM | GI50 (MDA-MB-231 breast): 648 nM | TGI (MDA-MB-231 breast): 2960 nM | GI50 (MDA-MB-435): 1640 nM | TGI (MDA-MB-435): 7690 nM | GI50 (MOLT-4 leukemia): 1280 nM | TGI (MOLT-4 leukemia): 4580 nM | GI50 (NCI-H226 lung): 1010 nM | TGI (NCI-H226 lung): 4640 nM | GI50 (NCI-H23 lung): 733 nM | TGI (NCI-H23 lung): 4980 nM | GI50 (NCI-H460 lung): 2030 nM | GI50 (NCI-H522 lung): 256 nM | TGI (NCI-H522 lung): 1030 nM | GI50 (NCI/ADR-RES ovarian): 1430 nM | TGI (NCI/ADR-RES ovarian): 5110 nM | GI50 (OVCAR-3 ovarian): 283 nM | TGI (OVCAR-3 ovarian): 720 nM | GI50 (OVCAR-4 ovarian): 1060 nM | TGI (OVCAR-4 ovarian): 11900 nM | GI50 (OVCAR-5 ovarian): 1410 nM | TGI (OVCAR-5 ovarian): 5320 nM | GI50 (OVCAR-8 ovarian): 1890 nM | TGI (OVCAR-8 ovarian): 13600 nM | GI50 (PC-3 prostate): 781 nM | TGI (PC-3 prostate): 5900 nM | GI50 (RPMI-8226 leukemia): 290 nM | TGI (RPMI-8226 leukemia): 2890 nM | GI50 (RXF 393 renal): 502 nM | TGI (RXF 393 renal): 1850 nM | GI50 (SF-268 CNS): 456 nM | TGI (SF-268 CNS): 1860 nM | GI50 (SF-295 CNS): 2630 nM | TGI (SF-295 CNS): 9000 nM | GI50 (SF-539 CNS): 347 nM | TGI (SF-539 CNS): 1710 nM | GI50 (SK-MEL-2 melanoma): 1840 nM | TGI (SK-MEL-2 melanoma): 16700 nM | GI50 (SK-MEL-28 melanoma): 1020 nM | TGI (SK-MEL-28 melanoma): 2450 nM | GI50 (SK-MEL-5 melanoma): 473 nM | TGI (SK-MEL-5 melanoma): 1750 nM | GI50 (SK-OV-3 ovarian): 2800 nM | TGI (SK-OV-3 ovarian): 7000 nM | GI50 (SN12C renal): 881 nM | TGI (SN12C renal): 4790 nM | GI50 (SNB-19 CNS): 1650 nM | TGI (SNB-19 CNS): 4440 nM | GI50 (SNB-75 CNS): 389 nM | TGI (SNB-75 CNS): 3340 nM | GI50 (SR leukemia): 295 nM | TGI (SR leukemia): 3700 nM | GI50 (SW-620 colon): 577 nM | TGI (SW-620 colon): 4540 nM | GI50 (T-47D breast): 474 nM | TGI (T-47D breast): 12600 nM | GI50 (TK-10 renal): 2310 nM | TGI (TK-10 renal): 9500 nM | GI50 (U251 CNS): 294 nM | TGI (U251 CNS): 1250 nM | GI50 (UACC-257 melanoma): 1500 nM | TGI (UACC-257 melanoma): 3240 nM | GI50 (UACC-62 melanoma): 574 nM | TGI (UACC-62 melanoma): 2180 nM | GI50 (UO-31 renal): 1220 nM | TGI (UO-31 renal): 2840 nM
